From patent US11236122B2, “Triterpene amine derivatives” (DFH THERAPEUTICS, priority 2018, dated 2022)
Structures can show the parent of a compound that is named as a salt.

Legend:
[1] = tested on: WT pNL4-3; experiment: CA-SP1 accumulation assay, WT NL4-3; assay type: cell-based, HIV-1; settings: HeLa or 293T cells; for % CA-SP1 Accumulation 10 nM NL4-3: 10 nM compound
How it was run: (§1)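 HeLa or 293T cells transfected with proviral clone, maturation inhibitors present through transfection and labeling; at 24 h, [^35S]Met/Cys labeling 2-3 h. Virions pelleted by ultracentrifugation, lysed, CA and CA-SP1 resolved by SDS-PAGE and quantified by phosphorimaging.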

[2] = tested on: pNL4-3 SP1-V7A; experiment: CA-SP1 accumulation assay, SP1-V7A derivative; assay type: cell-based, HIV-1; settings: HeLa or 293T cells; for % CA-SP1 Accumulation 10 nM SP1 V7A: 10 nM compound
How it was run: as §1

[3] = tested on: HIV-1 clade B NL4-3; experiment: Viral infectivity assay in TZM-bl cells (luciferase), NL4-3; assay type: cell-based; settings: DMSO = 100
Excerpt: Plasmids, tissue culture and transfections. HIV-1 clade B molecular clone NL4-3 and cade C clones K3016, ZM247 were obtained from Dr. Christina Ochsenbauer, University of Alabama, USA. Both K3016 and ZM247 were constructed using viral strains from South Africa. The HIV-1 clade C molecular clone pindieC1 was obtained from Dr. Uday Ranga, JNCASR, India. This clone was constructed using an HIV strain from India. HEK-293T and TZM-bl cells were propagated in Dulbecco's modified Eagle's medium (DM4EM) containing 10% fetal bovine serum (FBS). HUT-R5 cells were propagated in RPM 1640 medium supplemented with 10% FBS. For transfections, HEK-293T cells were grown in six well plates to about 80% confluency. Cells were transfected using Lipofectamine 2000 (invitrogen, USA) following manufacturer's recommendations. For viral replication assays, HUT-R5 T-cells were transfected using DEAE dextran as described in Waheed, A. A., Ono, A., and Freed, E. O.; Methods for the study of HIV-1 assembly; Methods Mol. Biol. Clifton N.J. 485, 163-184 (2009).
Preparation of viral stocks. Virus stocks were prepared by transfecting HEK-293T cells with HIV-1 DNAs (3 μg). 24 h post-transfection, the culture medium was replaced with fresh DMEM and incubated for another 2 h. Compounds tested were maintained in the culture throughout transfection. The culture supernatant was centrifuged at 845×g for 3 min to remove cellular debris. The clarified supernatants were filtered (pore size 0.45 µm filter disc) to remove residual cellular contaminants. For determination of viral infectivity, the un-concentrated virus was used to infect TZM-bl cells. For the CA-SP1 accumulation assay, the virus was pelleted by ultra-centrifugation at 210,100×g for 1 h at 4° C. using SW41Ti rotor (Beckman Coulter, USA).
Viral infectivity assays. The virus stocks were normalized for p24 antigen using an HIV-1 p24 Antigen Capture kit (ABL, USA). Equal amounts of virus were used to infect TZM-bl cells (5×10^4/well) in the presence of 20 μg DEAE-dextran per mL in 24 well plate. Single-round infectivity assays were performed as previously described in Checkley, M. A. et al; Reevaluation of the Requirement for TIP47 in Human Immunodeficiency Virus Type 1 Envelope Glycoprotein Incorporation; J. Virol. 87, 3561-3570 (2013). The luciferase activity in the cell lysates was measured using the Steady-Glo luciferase assay kit (Promega, USA) following manufacturer's recommendations.

[4] = tested on: HIV-1 clade C K3016 in HUT-R5 cells; experiment: Antiviral assay in HUT-R5 cells (p24), K3016; assay type: cell-based; settings: Human immunodeficiency virus 1, 192 h, 8 days, mean ± SEM, 2 experiments
Protocol: Antiviral assays. HUT-R5 cells were infected with normalized HIV-1 clade C K3016 virus stocks at 37° C. for 1 h. Cells were then maintained for 8 days in the presence of serial dilutions of the compounds assayed. After 8 days, the HIV-1 p24 concentration in the virus supernatants was measured to monitor virus replication. The 50% inhibitory concentrations (IC50s) were determined that reduced HIV-1 p24 levels to 50% relative to DMSO-only controls.

[5] = Cytotoxicity assay CellTitre-Blue, HEK-293T; assay type: cell-based; settings: human, HEK-293T cells, read-out: Cytotoxicity CC50 HEK293T
Protocol: Cytotoxicity assays. Cytotoxicity assays were performed using the CellTitre-Blue Cell Viability Assay kit (Promega, USA) as per manufacturer's recommendations. HEK-293T and HUT-R5 cell lines were maintained in the presence of serial dilutions of the compounds for 4 days and treated with CellTitre-Blue reagent for 4 h at 37° C. The fluorescent signals were recorded at 530/25excision and 590/35emission using BioTek microplate reader. The 50% cytotoxicity concentrations (CC50s) were determined as the compound concentrations that reduced the fluorescent signals to 50% relative to DMSO only controls.

Structure (SMILES)	% CA-SP1 Accumulation 10 nM NL4-3 [1]	% CA-SP1 Accumulation 10 nM SP1 V7A [2]	% Relative Infectivity NL4-3 10 nM [3] [%]	% Relative Infectivity NL4-3 100 nM [3] [%]	IC50 [4] [nM]	CC50 at 4 days [5] [nM]	% CA-SP1 Accumulation 100 nM NL4-3 ([1]; 100 nM compound)	% CA-SP1 Accumulation 100 nM SP1 V7A ([2]; 100 nM compound)
C=C(C)[C@@H]1CC[C@]2(CCNCCN3CCS(=O)(=O)CC3)CC[C@]3(C)[C@H](CC[C@@H]4[C@@]5(C)CC[C@H](OC(=O)CC(C)(C)C(=O)O)C(C)(C)[C@@H]5CC[C@]43C)[C@@H]12 [Compound 51ee, (3β)-17-[[[2-[2-(1,1-Dioxothiomorpholin-4-yl)]Ethyl]Amino]Ethyl]-28-norlup-20(29)-en-3-ol, 3-(1-Hydrogen 2,2-Dimethylbutanedioate)]	73.5%	35.1%	15.4	4.4	3.6 ± 0.22	> 100		
C=C(C)[C@@H]1CC[C@]2(CCNC3CCN(CCO)CC3)CC[C@]3(C)[C@H](CC[C@@H]4[C@@]5(C)CC[C@H](OC(=O)CC(C)(C)CC(=O)O)C(C)(C)[C@@H]5CC[C@]43C)[C@@H]12 [Compound 51f, (3β)-17-[2-[[1-(2-Hydroxyethyl)piperidin-4-yl]amino]ethyl]-28-norlup-20(29)-en-3-ol, 3-(Hydrogen 3,3-Dimethylpentanedioate), Bis(trifluoroacetate) Salt]							79.7 (3) %	43.4 (3) %
C=C(C)[C@@H]1CC[C@]2(CCNCCN3CCN(S(C)(=O)=O)CC3)CC[C@]3(C)[C@H](CC[C@@H]4[C@@]5(C)CC[C@H](OC(=O)CC(C)(C)C(=O)O)C(C)(C)[C@@H]5CC[C@]43C)[C@@H]12 [Compound 51ff, (3β)-17-[2-[[2-[4-(Methylsulfonyl)piperazin-1-yl]ethyl]amino]ethyl]-28-norlup-20(29)-en-3-ol, 3-(1-Hydrogen 2,2-Dimethylbutanedioate)]	72.7 (3) %	31.1 (3) %	20.1	2.9	2.27 ± 0.56	> 100		
C=C(C)[C@@H]1CC[C@]2(CCNCCN3CCN(Cc4ccccc4)CC3)CC[C@]3(C)[C@H](CC[C@@H]4[C@@]5(C)CC[C@H](OC(=O)CC(C)(C)C(=O)O)C(C)(C)[C@@H]5CC[C@]43C)[C@@H]12 [Compound 51hh, (3β)-17-[2-[[2-[4-(Phenylmethyl)piperazin-1-yl]ethyl]amino]ethyl]-28-norlup-20(29)-en-3-ol, 3-(1-Hydrogen 2,2-Dimethylbutanedioate)]	66.4 (3) %	42.1 (5) %	41.4	3.3	3.89 ± 0.18	> 100		
